Values of other authors in patent US20190231802A1, “CHEMOTHERAPEUTIC-RELEASING IMPLANTABLE STICK, METHODS OF MANUFACTURE AND PRECURSOR MATERIALS” (The Johns Hopkins University, priority 2016, published 2019).

System: selected cancer cell lines
Conditions: compared to paclitaxel, topotecan, CPT-11, docetaxel, carboplatin and temozolomide; previous study [8]

COc1cccc2c1C(=O)c1c(O)c3c(c(O)c1C2=O)C[C@@](O)(C(=O)CO)C[C@@H]3O[C@H]1C[C@H](N)[C@H](O)[C@H](C)O1 [Doxorubicin]
IC50: relatively low IC50
